Measured values: US20250221936A1, “ENGINEERED HEMICHANNELS, ENGINEERED VESICLES, AND USES THEREOF” (VIRGINIA TECH INTELLECTUAL PROPERTIES, INC., priority 2018, published 2025)

Tested on: Cx43 S368 phosphorylation
Assay: Western blot of Cx43-pS368 in peptide-infused LV
Set-up: species or system mouse
Conditions: peptide infused 20 minutes; relative to vehicle control
Protocol: Protein samples from all related experiments (PKC and EDC cross-linking assays and Westerns on heart lysates) were processed in lithium dodecyl sulfate sample loading buffer (Bio-Rad, 1610737 CA), heated at 95° C. for 5 minutes. Samples from PKC and cross-linking assays were loaded on 18% Tris-Glycine Stain-Free gels (Bio-Rad, 5678073 CA); samples from heart lysates were loaded on 10% Tris-Glycine Stain-Free el (Bio-Rad: 5678033 CA), resolved by SDS-PAGE, transferred to PVDF FL membrane on a Turbo Transfer System (Bio-Rad, 1704155 CA). alpha CT1 eluted from cross-linking reactions was detected on blots against biotin with HRP-NeutrAvidin (ThermoFisher, 31001, MA). Signals were detected by HR-based chemiluminescence (ThermoFisher, 34095, MA) and exposed to ECL Chemidoc (Bio-Rad, 1708280 CA) and digitized using Image Lab software (Bio-Rad, 1709692 CA). Detailed methods have also been previously described^11, 13, 14 Surface Plasmon Resonance
Male, 3-month-old, body weight 25±5 g C57BL/6 mice were used for this study and obtained from Charles River. Animals were randomly assigned to experimental groups and Left ventricular (LV) function was measured and myocardial ischemia-reperfusion injury (I/R) was induced as previously described^23. Briefly, 15 minutes after the injection of heparin at a dose of 200U/10 g body weight, the mouse was anesthetized by inhalation of isoflurane vapor and subjected to cervical dislocation upon the cessation of respiration. Thoracotomy was immediately performed and the heart excised. The heart was arrested in ice-cold Krebs-Henseleit (KH) buffer (in mM: 25 NaHCO3, 0.5 EDTA, 5.3 KCl, 1.2 MgSO4, 0.5 pyruvate, 118 NaCl, 10 glucose, 2.5 CaCl2). The aorta was isolated and cannulated in a Langendorff perfusion system. The heart was then perfused at a constant pressure of 75 mmHg with KH buffer, which was continually bubbled with 5% CO2/95% O2 at 37° C. Effluent from the Thebesian veins was drained by a thin polyethylene tube (PE-10) pierced through the apex of the LV. […] After a 30-minute stabilization period, a balloon volume (BV) generating an LV end-diastolic-pressure (EDP) of 0 mmHg, was determined for the heart. The BV was then increased stepwise up through 1, 2, 5, 8, 10, 12, 15, 18, 20, 25, 30 μl increments of 1-5 μl and contractile performance were recorded for 10 seconds at each step. […] Data was recorded and analyzed using PowerLab 4/35 (ADInstruments, PL3504, CO) and LabChart V7 (ADInstruments, CO). […] Baseline function (determined by EDP at about 8-10 mmHg) was recorded for 5 minutes. […] BV was retaken through the stepwise sequence of 1-5 μl increments between 1 and 30 μl, with contractile performance again being recorded for 10 seconds at each step. Cardiac LV function was recorded throughout the procedure. […]

Sequence	Cx43 pS368 in LV samples
RQPKIWFPNRRKPWKK RPRPAALAI (RQPKIWFPNRRKPWKKRPRPAALAI) [M1 AALAI]	no propensity to upregulate S368 phosphorylation
RQPKIWFPNRRKPWKKRPRPDDLAI [M3 DDLAI]	no propensity to upregulate S368 phosphorylation
RQPKIWFPNRRKPWKKRPRPDDLE [alpha CT1-I]	significant increases in phosphorylation
RQPKIWFPNRRKPWKKRPRPDDLEI [alpha CT1]	significant increases in phosphorylation
